Tests used:
human JAK2 = molecular target: T1, human JAK2 (Homo sapiens, UniProt O60674); test: JAK2 inhibition assay (polyGT substrate / Ulight-JAK1 peptide); assay type: biochemical; details: recombinant human JAK2 catalytic domain; polyGT or Ulight-JAK1 peptide assay
T1 construct: catalytic domain (amino acids 808-1132; catalog number PV4210); GST; purchased Invitrogen PV4210
Experimental: 1.2 JAK2 Inhibition Assay
1.2.1 JAK2 Assay polyGT Substrate
0.025 mU of JAK2 is incubated with 2.5 μg polyGT substrate (Sigma catalog number P0275) in kinase reaction buffer (5 mM MOPS pH 7.5, 9 mM MgAc, 0.3 mM EDTA, 0.06% Brij and 0.6 mM DTT, 1 μM non-radioactive ATP, 0.25 μCi ^33P-gamma-ATP (GE Healthcare, catalog number AH9968) final concentrations) with or without 5 μL containing test compound or vehicle (DMSO, 1% final concentration), in a total volume of 25 μL, in a polypropylene 96-well plate (Greiner, V-bottom). After 90 min at 30° C., reactions are stopped by adding of 25 μL/well of 150 mM phosphoric acid. […] Plates are washed 6 times with 300 μL per well of a 75 mM phosphoric acid solution and the bottom of the plates is sealed. 40 μL/well of Microscint-20 is added, the top of the plates is sealed and readout is performed using the Topcount (Perkin Elmer). Kinase activity is calculated by subtracting counts per min (cpm) obtained in the presence of a positive control inhibitor (10 μM staurosporine) from cpm obtained in the presence of vehicle. The ability of a test compound to inhibit this activity is determined as:
(§1) Percentage inhibition=((cpm determined for sample with test compound present−cpm determined for sample with positive control inhibitor)divided by(cpm determined in the presence of vehicle−cpm determined for sample with positive control inhibitor))*100.
Dose dilution series are prepared for the compounds enabling the testing of dose-response effects in the JAK2 assay and the calculation of the IC50 for each compound.
1.2.2 JAK2 Ulight-JAK1 Peptide Assay
(§2) After 60 min at room temperature, reactions were stopped by adding 20 μL/well of detection mixture (1× detection buffer (Perkin Elmer, catalog number CR97-100C), 0.5 nM Europium-anti-phosphotyrosine (PT66) (Perkin Elmer, catalog number AD0068), 10 mM EDTA). […] Kinase activity was calculated by subtracting relative fluorescence units (RFU) obtained in the presence of a positive control inhibitor (10 μM staurosporine) from RFU obtained in the presence of vehicle. The ability of a test compound to inhibit this activity was determined as:
(§3) Percentage inhibition=((RFU determined for sample with test compound present−RFU determined for sample with positive control inhibitor)divided by(RFU determined in the presence of vehicle−RFU determined for sample with positive control inhibitor))*100.
(§4) Dose dilution series are prepared for compound enabling the testing of dose-response effects in the JAK2 assay and the calculation of the IC50 for the compound. Each compound is routinely tested at concentration of 20 μM followed by a 1/5 serial dilution, 10 points in a final concentration of 1% DMSO. […] The data are expressed as the average IC50 from the assays±standard error of the mean.

human JAK1 = molecular target: T2, human JAK1 (Homo sapiens, UniProt P23458); test: JAK1 inhibition assay (polyGT substrate / Ulight-JAK1 peptide); assay type: biochemical; details: recombinant human JAK1 catalytic domain; polyGT or Ulight-JAK1 peptide assay
T2 construct: catalytic domain, amino acids 866-1154; catalog number PV4774; purchased Invitrogen PV4774
T2 sequence (P23458 866-1154): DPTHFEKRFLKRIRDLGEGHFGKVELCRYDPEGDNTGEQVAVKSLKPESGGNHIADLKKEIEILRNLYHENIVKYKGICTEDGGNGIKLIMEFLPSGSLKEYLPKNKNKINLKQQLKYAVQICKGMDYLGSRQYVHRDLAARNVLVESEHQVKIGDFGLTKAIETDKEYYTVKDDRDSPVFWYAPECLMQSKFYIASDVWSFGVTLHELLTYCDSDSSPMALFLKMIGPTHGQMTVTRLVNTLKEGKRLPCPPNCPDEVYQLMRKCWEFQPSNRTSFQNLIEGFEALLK
Experimental: 1.1 JAK1 Inhibition Assay
1.1.1 JAK1 Assay polyGT Substrate
After 45 min at 30° C., reactions are stopped by adding of 25 μL/well of 150 mM phosphoric acid. […] Plates are washed 6 times with 300 μL per well of a 75 mM phosphoric acid solution and the bottom of the plates is sealed. 40 μL/well of Microscint-20 is added, the top of the plates is sealed and readout is performed using the Topcount (Perkin Elmer). Kinase activity is calculated by subtracting counts per min (cpm) obtained in the presence of a positive control inhibitor (10 μM staurosporine) from cpm obtained in the presence of vehicle. The ability of a test compound to inhibit this activity is determined as:
as §1
Dose dilution series are prepared for the compounds enabling the testing of dose-response effects in the JAK1 assay and the calculation of the IC50 for each compound.
1.1.2 JAK1 Ulight-JAK1 Peptide Assay
as §2, §3
as §4, with “series were” for “series are”, “for the compounds” for “for compound”, “the JAK1” for “the JAK2”

T1 sequence (O60674 808-1132): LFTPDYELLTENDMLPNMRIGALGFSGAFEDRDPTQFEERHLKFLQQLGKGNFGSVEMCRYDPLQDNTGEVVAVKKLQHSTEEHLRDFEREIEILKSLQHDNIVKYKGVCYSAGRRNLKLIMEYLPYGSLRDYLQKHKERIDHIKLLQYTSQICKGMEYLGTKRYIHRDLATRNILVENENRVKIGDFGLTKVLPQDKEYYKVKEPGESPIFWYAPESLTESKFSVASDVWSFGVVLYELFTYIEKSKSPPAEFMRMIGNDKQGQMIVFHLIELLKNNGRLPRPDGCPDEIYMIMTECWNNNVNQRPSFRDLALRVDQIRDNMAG

SMILES	IC50 (human JAK2)	IC50 (human JAK1)
COc1ccccc1N(C)c1cc2c(cn1)ncn2C [Compound 42, N-(2-methoxyphenyl)-N,1-dimethyl-1H-imidazo[4,5-c]pyridin-6-amine]	> 1000 nM	101 to 500 nM
CCc1ccc(C(=O)NCCOC)cc1N(C)c1cc2c(cn1)ncn2C [Compound 116, 4-Ethyl-N-(2-methoxyethyl)-3-(methyl(1-methyl-1H-imidazo[4,5-c]pyridin-6-yl)amino)benzamide]	> 1000 nM	101 to 500 nM
Cc1c(OCc2ccc(Cl)cc2)cccc1N(C)c1cc2c(cn1)ncn2C [Compound 76]	> 1000 nM	> 1000 nM
CCc1cc(C(=O)N2CCC(N(C)C)C2)ccc1N(C)c1cc2c(cn1)ncn2C (centres unmarked) [Compound 106, (3-(dimethylamino)pyrrolidin-1-yl)(3-ethyl-4-(methyl(1-methyl-1H-imidazo[4,5-c]pyridin-6-yl)amino)phenyl)methanone]	> 1000 nM	> 1000 nM
COc1ccc(Cc2ccc(N(C)c3cc4c(cn3)ncn4C)c(C)c2)cc1 [Compound 74, N-(4-(4-methoxybenzyl)-2-methylphenyl)-N,1-dimethyl-1H-imidazo[4,5-c]pyridin-6-amine]	> 1000 nM	501 to 1000 nM
CN(c1ccc(OCC2CCCO2)cc1)c1cc2c(cn1)ncn2C (centres unmarked) [Compound 18, N,1-dimethyl-N-(4-((tetrahydrofuran-2-yl)methoxy)phenyl)-1H-imidazo[4,5-c]pyridin-6-amine]	> 1000 nM	501 to 1000 nM
CCN(c1ccc2c(ccn2C)c1)c1cc2c(cn1)ncn2C [Compound 8, N-ethyl-1-methyl-N-(1-methyl-1H-indol-5-yl)-1H-imidazo[4,5-c]pyridin-6-amine]	101 to 500 nM	> 1000 nM
Cc1c(OCC(=O)N(C)C)cccc1N(C)c1cc2c(cn1)ncn2C [Compound 65, N,N-dimethyl-2-(2-methyl-3-(methyl(1-methyl-1H-imidazo[4,5-c]pyridin-6-yl)amino)phenoxy)acetamide]	> 1000 nM	> 1000 nM
Cc1ccc(OCC(=O)N(C)C)cc1N(C)c1cc2c(cn1)ncn2C [Compound 59, N,N-dimethyl-2-(4-methyl-3-(methyl(1-methyl-1H-imidazo[4,5-c]pyridin-6-yl)amino)phenoxy)acetamide]	> 1000 nM	101 to 500 nM
CCN(c1cccc(C(O)c2ccccc2)c1)c1cc2c(cn1)ncn2C (centres unmarked) [Compound 12, (3-(ethyl(1-methyl-1H-imidazo[4,5-c]pyridin-6-yl)amino)phenyl)(phenyl) MeOH]	> 1000 nM	501 to 1000 nM
CCc1ccc(C(=O)Nc2cccnc2)cc1N(C)c1cc2c(cn1)ncn2C [Compound 124, 4-ethyl-3-(methyl(1-methyl-1H-imidazo[4,5-c]pyridin-6-yl)amino)-N-(pyridin-3-yl)benzamide]	> 1000 nM	101 to 500 nM
Cc1noc(C)c1COc1ccc(N(C)c2cc3c(cn2)ncn3C)cc1 [Compound 20, N-(4-((3,5-dimethylisoxazol-4-yl)methoxy)phenyl)-N,1-dimethyl-1H-imidazo[4,5-c]pyridin-6-amine]	> 1000 nM	> 1000 nM
Cc1cc(OCc2ccccc2)ccc1N(C)c1cc2c(cn1)ncn2C [Compound 53, N-(4-(benzyloxy)-2-methylphenyl)-N,1-dimethyl-1H-imidazo[4,5-c]pyridin-6-amine]	> 1000 nM	101 to 500 nM
Cc1cc(OCCN2CCCC2)ccc1N(C)c1cc2c(cn1)ncn2C [Compound 52, N,1-dimethyl-N-(2-methyl-4-(2-(pyrrolidin-1-yl)ethoxy)phenyl)-1H-imidazo[4,5-c]pyridin-6-amine]	> 1000 nM	501 to 1000 nM
Cc1cc(OCC(=O)N(C)C)ccc1N(C)c1cc2c(cn1)ncn2C [Compound 51, N,N-dimethyl-2-(3-methyl-4-(methyl(1-methyl-1H-imidazo[4,5-c]pyridin-6-yl)amino)phenoxy)acetamide]	> 1000 nM	> 1000 nM
Cc1cc(C(=O)O)ccc1N(C)c1cc2c(cn1)ncn2C [Compound 40, 3-methyl-4-(methyl(1-methyl-1H-imidazo[4,5-c]pyridin-6-yl)amino)benzoic acid]	> 1000 nM	> 1000 nM
COc1ccc(N(C)c2cc3c(cn2)ncn3C)c(C)c1 [Compound 45, N-(4-Methoxy-2-methylphenyl)-N,1-dimethyl-1H-imidazo[4,5-c]pyridin-6-amine]	> 1000 nM	101 to 500 nM
CCN(c1cccc(Oc2ccccc2)c1)c1cc2c(cn1)ncn2C [Compound 11, N-ethyl-1-methyl-N-(3-phenoxyphenyl)-1H-imidazo[4,5-c]pyridin-6-amine]	> 1000 nM	101 to 500 nM
COc1ccc(Cc2cc3c(cn2)ncn3C)cc1 [Compound 275, 6-(4-methoxybenzyl)-1-methyl-1H-imidazo[4,5-c]pyridine]	> 1000 nM	> 1000 nM
CCc1ccc(CO)cc1N(C)c1cc2c(cn1)ncn2C [Compound 109, (4-Ethyl-3-(methyl(1-methyl-1H-imidazo[4,5-c]pyridin-6-yl)amino)phenyl)MeOH]	> 1000 nM	101 to 500 nM
Cc1c(OCCN2CCCC2)cccc1N(C)c1cc2c(cn1)ncn2C [Compound 77, N,1-dimethyl-N-(2-methyl-3-(2-(pyrrolidin-1-yl)ethoxy)phenyl)-1H-imidazo[4,5-c]pyridin-6-amine]	> 1000 nM	> 1000 nM
Cc1c(OCC(C)C)cccc1N(C)c1cc2c(cn1)ncn2C [Compound 70, N-(3-isobutoxy-2-methylphenyl)-N,1-dimethyl-1H-imidazo[4,5-c]pyridin-6-amine]	501 to 1000 nM	101 to 500 nM
Cc1cc(Oc2ccc(C#N)nc2)ccc1N(C)c1cc2c(cn1)ncn2C [Compound 88, 5-(3-methyl-4-(methyl(1-methyl-1H-imidazo[4,5-c]pyridin-6-yl)amino)phenoxy)picolino-nitrile]	> 1000 nM	101 to 500 nM
CCc1cc(C(=O)NCCc2ccccc2)ccc1N(C)c1cc2c(cn1)ncn2C [Compound 99, 3-ethyl-4-(methyl(1-methyl-1H-imidazo[4,5-c]pyridin-6-yl)amino)-N-phenethylbenzamide]	> 1000 nM	101 to 500 nM
CCN(c1cccc(C(=O)c2ccccc2)c1)c1cc2c(cn1)ncn2C [Compound 9, (3-(ethyl(1-methyl-1H-imidazo[4,5-c]pyridin-6-yl)amino)phenyl)(phenyl) methanone]	> 1000 nM	> 1000 nM
CCc1cc(C(=O)N2CCN(C)CC2)ccc1N(C)c1cc2c(cn1)ncn2C [Compound 100, (3-ethyl-4-(methyl(1-methyl-1H-imidazo[4,5-c]pyridin-6-yl)amino)phenyl)(4-methylpiperazin-1-yl)methanone]	> 1000 nM	501 to 1000 nM
Cc1ccc(OCCN2CCCC2)cc1N(C)c1cc2c(cn1)ncn2C [Compound 58, N,1-dimethyl-N-(2-methyl-5-(2-(pyrrolidin-1-yl)ethoxy)phenyl)-1H-imidazo[4,5-c]pyridin-6-amine]	> 1000 nM	> 1000 nM
CN(c1ccc(OCc2ccccc2)cc1)c1cc2c(cn1)ncn2C [Compound 14, N-(4-(benzyloxy)phenyl)-N,1-dimethyl-1H-imidazo[4,5-c]pyridin-6-amine]	> 1000 nM	> 1000 nM

Reference: US20130217664A1, “NOVEL COMPOUNDS USEFUL FOR THE TREATMENT OF DEGENERATIVE AND INFLAMMATORY DISEASES” (priority 2012, published 2013)
